In patent US7312248B2, “Control of parasites in animals by the use of novel trifluoromethanesulfonanilide oxime ether derivatives” (Schering-Plough Animal Health Corporation, priority 2004, dated 2007):
Like-named read-outs stand apart in the source and are kept apart here.

Key:
Assay type in all cases: in vivo
[1] = system: cat flea (Ctenocephalides felis); test: whole plant or invertebrate; conditions: Ctenocephalides felis
In short: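 Adult C. felis (3-7 days post-emergence; 15 per flask, at least 4 replicates) exposed to a glass flask base dried 24 h after coating with compound in acetone at 1.26 μg/cm^2. Held at 25±1 °C, 75±5% humidity; mortality (immobile or unable to right) scored at 8, 24 and/or 48 h as percentage.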

[2] = system: Brown Dog Tick (Rhipicephalus sanguineus); test: Rapid screening protocol for topical application on brown dog ticks; conditions: 48 h; Laboratory 2 F data
[3] = system: cat flea (Ctenocephalides felis); test: Ctenocephalides felis adulticide assay: dose response (LC50)
In short: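 Groups of 15 adult cat fleas, 3–7 days post-emergence, were exposed for 24 h at 25° C and 75% humidity to glass flask bases coated with six serial doses in acetone and dried for 24 h. Mortality was scored at 8 and 24 h, and LC50 was the surface-treatment concentration killing 50%.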

[4] = system: Brown Dog Tick (Rhipicephalus sanguineus); test: Dose response protocol for topical application on brown dog ticks (LD50); conditions: 24 h mortality
Procedure: e) Dose response protocol for topical application on brown dog ticks (Rhipicephalus sanguineus): The test determines the level of insecticidal activity of sample compounds or formulations when applied topically on brown dog ticks. Sample compounds were stored prior to use in a freezer (−5±1° C.), unless otherwise specified.
• Mortality: A tick is defined as dead after it gives no apparent response when touched lightly or gently breathed upon, while observed for 30 seconds. • LD50 (Lethal Dose 50): The dose of a topically applied treatment at which 50% of the dog ticks are killed. • Reference compound: To assess an experimental compound for significant acaricidal activity a single dose level is chosen, which is based upon known results from previous experiments using a commercially available active i.e., a reference compound. The reference compound selected is one in common use, and one that has a similar mode of action against the Brown Dog Tick (i.e., the test species). • Recovery container: A recovery container consists of a 500 ml round plastic container measuring 115 mm diameter and 70 mm height, with a tight fitting lid that has 10 small (˜1 mm) holes inserted for air exchange. A 90 mm diameter piece of filter paper was placed on the bottom of the container and moistened with 1 mL of de-stilled water.
Adult, mixed sex, Brown Dog Ticks (Rhipicephalus sanguineus) were reared as follows: (i) cultured, (ii) transferred unfed, to a testing laboratory, and (iii) then maintained under controlled conditions (i.e., temp. 18°±2° C., humidity 75±5% RH). The ticks used were selected for vigor prior to testing, i.e., capable of actively walking and responsive to being touched or gently breathed upon.
During the testing, the temperature was maintained at 25±1° C., and the humidity was ambient. Seven dose levels (concentrations) of sample compound, in the form of serial dilutions in acetone, were derived from a pilot study and covered a range that produced very low to very high mortality. Groups of ten ticks were treated topically (on the abdomen) with 1 μL of a single dose level of the sample compound. Each test was replicated four times, i.e., employing a total of 40 ticks per dose level of each sample compound. As a control, ten ticks were treated with solvent only (acetone) for each test. Following the treatment, the ticks were held in recovery containers maintained under appropriate rearing conditions for 24 hours. Mortality resulting from the treatments was recorded at 24 hours. […] Press, London (1971).]

[5] = system: Haemonchus contortus; test: Haemonchus contortus larvacidal (larval development) assay; conditions: 144 h, read-out: Haemonchus contortus LD99
In short: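 Nematode eggs placed on agar containing compound (12 two-fold dilutions, final 0.024–50 μg/ml) and left 6 days to develop to L3. LD99 is the lowest concentration inhibiting development of 99% of larvae, derived from well titre (2^n−1) and top concentration.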

[6] = 8 h, read-out: C. felis Mortality (%) 8 h, 8 h, Laboratory 2 B data
[7] = 24 h, read-out: C. felis Mortality (%) 24 h, 24 h, Laboratory 2 B data

Compound	mortality at 1.26 µg/cm2, 1.26 µg/cm2 [1, 6] [%]	mortality at 1.26 µg/cm2, 1.26 µg/cm2 [1, 7] [%]	R. sanguineus Mortality (%) 48 h [2] [%]	C. felis LC50 ([3]; Laboratory 2 D data)	R. sanguineus LD50 [4] [μg/tick]	mortality at 1.26 µg/cm2, 1.26 µg/cm2 ([1]; 24 h, read-out: C. felis Mortality (%) 24 h, 24 h, Laboratory 1 A data) [%]	C. felis LC50 ([3]; Laboratory 1 C data) [μg/cm^2]	IC99 [5] [µg/mL]
CCC/C(=N\OCC)c1cc(Cl)ccc1NS(=O)(=O)C(F)(F)F [Compound 193, N-[4-chloro-2-(1-ethoxyiminobutyl)phenyl]trifluoromethanesulfonamide]	88	100	95	0.01^D μg/cm^2	1.2			
CC/C(=N\OC(C)(C)C)c1cc(Cl)ccc1NS(=O)(=O)C(F)(F)F [Compound 224]	83	100	95	0.04^D μg/cm^2	1.5			
CC/C(=N\OCC1CCCO1)c1cc(Cl)ccc1NS(=O)(=O)C(F)(F)F (stereo not drawn) [Compound 205]	97	98	100	0.02^D μg/cm^2	3.1			
CC/C(=N\Oc1ccc(F)cc1)c1cc(Cl)ccc1NS(=O)(=O)C(F)(F)F [Compound 130, N-{4-chloro-2-[1-(4-fluorophenoxyimino)propyl]phenyl}trifluoromethanesulfonamide]			100	0.03 μg/cm^2	1.5	100	0.2	1.5
CC(C)/C(=N\Oc1ccc(Cl)cc1)c1cc(Cl)ccc1NS(=O)(=O)C(F)(F)F [Compound 215, N-{4-chloro-2-[1-(4-chlorophenoxyimino)-2-methylpropyl]phenyl}trifluoromethanesulfonamide]	82	100	87	0.07^D μg/cm^2	1.7			
C#CCO/N=C(\C)c1cc(Cl)ccc1NS(=O)(=O)C(F)(F)F [Compound 202]	100	100	100	0.01^D μg/cm^2	0.9			
CC/C(=N\OCc1cccs1)c1cc(Cl)ccc1NS(=O)(=O)C(F)(F)F [Compound 207, N-{4-chloro-2-[1-(thiophen-2-ylmethoxyimino)propyl]phenyl}trifluoromethanesulfonamide]	98	100	100	0.007^D μg/cm^2	2.5			
